Test results taken from patent publication US9328060B2, “J-series prostaglandin-ethanolamides as novel therapeutics” (East Carolina University, priority 2013, dated 2016).

Columns and labels:
[1] = tested on: COX-2 overexpressing squamous carcinoma cell line JWF2; settings: JWF2, background section; cited from earlier work
COX-2 = molecular target: T1, COX-2 (Mus musculus, UniProt Q05769); experiment: LC/MS of J-series PG-ethanolamides in culture medium of AEA-treated cells; assay type: cell-based; settings: COX-2 overexpressing cells; for J-series PGs identified in AEA-treated cells: FIG. 6C
T1 construct: endogenous in cells; host or cells: JWF2 keratinocytes
T1 sequence (Q05769 18-604): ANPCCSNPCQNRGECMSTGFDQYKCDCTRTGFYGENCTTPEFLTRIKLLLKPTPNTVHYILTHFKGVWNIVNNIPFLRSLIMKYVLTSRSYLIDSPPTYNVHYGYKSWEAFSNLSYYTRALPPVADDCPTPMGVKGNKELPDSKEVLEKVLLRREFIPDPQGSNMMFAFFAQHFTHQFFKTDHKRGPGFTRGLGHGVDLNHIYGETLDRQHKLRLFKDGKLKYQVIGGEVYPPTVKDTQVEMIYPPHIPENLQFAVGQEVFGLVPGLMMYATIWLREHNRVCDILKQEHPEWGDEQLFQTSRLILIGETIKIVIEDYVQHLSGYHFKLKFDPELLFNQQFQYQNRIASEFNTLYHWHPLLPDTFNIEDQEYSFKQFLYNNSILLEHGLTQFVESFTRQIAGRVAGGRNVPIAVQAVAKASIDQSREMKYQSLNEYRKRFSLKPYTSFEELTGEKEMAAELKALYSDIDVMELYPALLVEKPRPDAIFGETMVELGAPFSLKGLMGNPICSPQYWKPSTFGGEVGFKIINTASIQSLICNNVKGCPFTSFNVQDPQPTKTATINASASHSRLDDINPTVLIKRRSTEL
Description: To identify the specific J-series PGs that are produced in AEA-treated cells that overexpress COX-2 we treated the cells with AEA, collected the culture medium and analyzed J-series PGs using LC/MS.
To determine the direct role of COX-2 in AEA-induced ER stress, the requirement of COX-2 for J-series PG-ethanolamide synthesis was assessed. Results are depicted in FIG. 9D.

tumor cell = experiment: Tumor cell death (FIG. 7); assay type: cell-based; settings: compared to 15d-PGJ
[2] = tested on: tumorigenic keratinocytes (Jwf2); experiment: Apoptosis in tumorigenic keratinocytes (FIG. 14); assay type: cell-based; settings: Jwf2, FIG. 14
tumor cells = experiment: Selective toxicity in tumor cells (FIG. 15); assay type: cell-based
[3] = tested on: Tumorigenic JWF2 keratinocytes; experiment: MTS cell viability, tumorigenic JWF2 keratinocytes; assay type: cell-based; settings: various concentrations, FIG. 1
Description: Tumorigenic JWF2 keratinocytes were treated with various concentrations of AEA and cell viability measured using MTS analysis. […] An interesting feature of tumorigenic keratinocytes is that they overexpress COX-2. However, non-tumorigenic keratinocytes contain low basal levels of COX-2. Therefore, the role of COX-2 in the cytotoxicity of AEA was examined.
JWF2 tumorigenic keratinocytes were treated with each of these prostaglandins and cell survival measured in MTS assays.

[4] = tested on: non-tumorigenic HaCaT keratinocytes; experiment: MTS cell viability, non-tumorigenic HaCaT keratinocytes; assay type: cell-based; settings: FIG. 1
eIF2a phosphorylation = experiment: ER stress (eIF2a phosphorylation staining) in HaCaT transfected with COX-2 or empty vector; assay type: cell-based; settings: HaCaT transfected with COX-2, relative to empty vector transfected cells, FIG. 2
Description: Since it was determined that AEA-induced cell death required COX-2 we examined whether ER stress also required COX-2. In this experiment we utilized HaCaT keratinocytes which express low basal levels of COX-2. The cells were transfected with an empty vector (pcDNA6.1) or an expression vector containing COX-2. In FIG. 2 the red signal indicates COX-2 expression, green indicates P-eIF2a phosphorylation and the blue stains the nuclear membrane for orientation.

activated caspase-3 = experiment: Apoptosis (activated caspase-3 staining) with or without COX-2; assay type: cell-based
From the text: Red staining indicates COX-2 while the green stain indicates activated caspase-3, a hallmark for apoptosis.

[5] = tested on: D- and J-series PG synthesis; experiment: Prostaglandin synthesis in JWF2 cells by ELISA; assay type: cell-based; settings: various concentrations of AEA, FIG. 6A
Description: To determine if D- and J-series PGs are synthesized endogenously, JWF2 cells were treated with various concentrations of AEA and prostaglandin synthesis measured using ELISA assays.

HaCaT keratinocytes = settings: low basal COX-2, background section; cited from earlier work
[6] = tested on: CHOP10 expression and Caspase-3 cleavage; experiment: CHOP10 expression and caspase-3 cleavage (FIGS. 12, 13); assay type: cell-based
H-PGDS and L-PGDS = experiment: AEA-induced PGD2 and PGJ2 production (FIG. 11); assay type: cell-based
epidermal tumor = settings: background section; cited from earlier work
[7] = tested on: Lewis lung adenocarcinoma; settings: oral administration, background section; cited from earlier work

For `CCCCC/C=C/C=C1/C(=O)C=C[C@@H]1C/C=C\CCCC(=O)O` [15-deoxy Δ^12,14 PGJ2, 15-deoxy-Δ^12,14-Prostaglandin J2], the cell death [1] is given as “inducers of cell death”.
In the case of `CCCCC/C=C/C=C1/C(=O)C=CC1C/C=C\CCCC(=O)NCCO` (stereo not shown) [15d-PGJ-EA, 15-deoxy Δ^12,14-prostagladin J2-ethanolamide], the “relative abundance among J-series PG-EAs produced” value (COX-2) is reported as “most abundant produced”, the “J-series PGs identified in AEA-treated cells” value (shortened to “J-series PGs identified”) (COX-2) is reported as “metabolic products of AEA” and the tumor cell death (tumor cell) is reported as “potent inducer of tumor cell death”. For the same compound, the apoptosis [2] was “induces apoptosis” and the “toxicity, tumor cell selectivity” value (tumor cells) was “selectively toxic in tumor cells”.
For `CCCCC/C=C\C/C=C\C/C=C\C/C=C\CCCC(=O)NCCO` [AEA, arachidonoyl ethanolamide], the “cell viability (MTS absorbance)” value [3] was “concentration-dependent decline in tumor cell viability”, the “cell viability (MTS absorbance)” value [4] was “did not lead to a loss of viability” and the “eIF2a phosphorylation (ER stress)” value (eIF2a phosphorylation) was “significant increase in eIF2a phosphorylation”. For the same compound, the “apoptosis (activated caspase-3)” value (activated caspase-3; cells with COX-2, FIG. 3) was “induced apoptosis”, the “apoptosis (activated caspase-3)” value (activated caspase-3; in the absence of COX-2, FIG. 3) was “did not undergo apoptosis” and the “D-series PG synthesis” value [5] was “concentration-dependent increase”. The “J-series PG synthesis” value [5] was “concentration-dependent increase”, the cell death [1] was “induce cell death” and the cell death (HaCaT keratinocytes) was “does not induce cell death”.
With `CCCCCC(O)CC=C1C(=O)C=CC1CC=CCCCC(=O)NCCO` (stereo not shown) [D12-PGJ-EA] the “J-series PGs identified” value (COX-2) was “metabolic products of AEA”.
For `CCCCC[C@H](O)/C=C/[C@H]1C(=O)C[C@H](O)[C@@H]1C/C=C\CCCC(=O)NCCO` [PGD2-EA], the CHOP10 expression ([6]; FIG. 13) is listed as “increased”, the Cl-Casp3 expression ([6]; FIG. 13) is listed as “increased” and the cell death [1] is listed as “cytotoxic”.
In the case of `CCCCC[C@H](O)/C=C/[C@H]1C(=O)C[C@H](O)[C@@H]1C/C=C\CCCC(=O)O` [PGD2], the cell death [1] is listed as “cytotoxic”.
In the case of `CCCCC[C@H](O)/C=C/[C@H]1C(=O)C=C[C@@H]1C/C=C\CCCC(=O)O` [PGJ2], the cell death [1] is listed as “inducers of cell death”.
For `CCCCCC(O)C=CC1C(=O)C=CC1CC=CCCCC(=O)NCCO` (stereo not shown) [PGJ-EA], the “J-series PGs identified” value (COX-2) was “metabolic products of AEA”.
With `Cl[Se](Cl)(Cl)Cl` [SeCL4] the “AEA-induced PGD2 production” value (H-PGDS and L-PGDS) was “reversed”, the “AEA-induced PGJ2 production” value (H-PGDS and L-PGDS) was “reversed” and the “AEA-induced CHOP10 expression” value ([6]; FIG. 12) was “inhibited”. For the same compound, the “AEA-induced Caspase-3 cleavage” value ([6]; indicator of apoptosis, FIG. 12) was “inhibited”.
In the case of `Cc1c(C(=O)c2cccc3ccccc23)c2cccc3c2n1[C@H](CN1CCOCC1)CO3` [WIN-55, 212-2], the epidermal tumor growth (epidermal tumor) is listed as “blocked”.
In the case of `CCCCCc1cc(O)c2c(c1)OC(C)(C)[C@@H]1CCC(C)=C[C@@H]21` [Δ^9-THC, Δ^9-tetrahydrocannabinol], the “Lewis lung adenocarcinoma growth” value [7] is listed as “reduce Lewis lung adenocarcinoma growth”.
